Target: Cdk9/cyclinT1 (Homo sapiens, UniProt P50750)
Assay: Cdk9/cyclinT1 IMAP Protocol (fluorescence polarization kinase assay)
Conditions: ATP 6 uM
[1] = Cdk9_cyclinT1_IC50, Table V, generated using one of the two Cdk9/cyclinT1 assays (IMAP or Alpha Screen), not stated which

Sequence of Cdk9/cyclinT1 (P50750 whole entry): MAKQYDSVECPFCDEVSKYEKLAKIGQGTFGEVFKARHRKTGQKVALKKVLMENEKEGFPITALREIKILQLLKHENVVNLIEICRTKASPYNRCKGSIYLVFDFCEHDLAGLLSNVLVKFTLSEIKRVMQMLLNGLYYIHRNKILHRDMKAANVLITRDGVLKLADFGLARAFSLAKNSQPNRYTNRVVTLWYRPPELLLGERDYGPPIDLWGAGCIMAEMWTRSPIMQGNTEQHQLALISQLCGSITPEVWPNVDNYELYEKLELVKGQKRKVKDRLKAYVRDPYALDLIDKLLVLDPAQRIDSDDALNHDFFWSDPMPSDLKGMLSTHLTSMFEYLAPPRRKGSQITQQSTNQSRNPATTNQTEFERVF
Sequence of Cdk9/cyclinT1 (O60563 whole entry partner): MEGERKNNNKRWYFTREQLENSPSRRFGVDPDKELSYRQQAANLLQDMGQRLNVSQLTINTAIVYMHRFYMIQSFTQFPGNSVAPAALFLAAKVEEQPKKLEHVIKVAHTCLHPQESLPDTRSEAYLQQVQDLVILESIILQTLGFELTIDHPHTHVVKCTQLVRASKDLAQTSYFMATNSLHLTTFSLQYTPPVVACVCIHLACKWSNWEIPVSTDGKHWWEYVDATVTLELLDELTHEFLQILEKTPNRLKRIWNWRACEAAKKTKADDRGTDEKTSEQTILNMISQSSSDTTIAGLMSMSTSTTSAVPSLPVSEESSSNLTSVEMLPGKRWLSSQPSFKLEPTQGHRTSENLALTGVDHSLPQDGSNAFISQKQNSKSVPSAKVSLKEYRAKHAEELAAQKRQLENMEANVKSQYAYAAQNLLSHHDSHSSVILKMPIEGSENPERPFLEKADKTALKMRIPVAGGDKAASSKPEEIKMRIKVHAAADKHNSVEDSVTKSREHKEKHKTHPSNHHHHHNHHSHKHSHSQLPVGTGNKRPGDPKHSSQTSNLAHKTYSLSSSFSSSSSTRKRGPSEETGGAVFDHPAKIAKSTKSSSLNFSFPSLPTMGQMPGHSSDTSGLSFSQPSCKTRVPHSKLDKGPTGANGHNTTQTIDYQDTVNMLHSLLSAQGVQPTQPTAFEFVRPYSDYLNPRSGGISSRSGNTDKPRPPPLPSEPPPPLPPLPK

IC50 [1] [nM] | IC50 (Cdk9_cyclinT1_IC50, generated using one of the two Cdk9/cyclinT1 assays (IMAP or Alpha Screen), not specified per value) [nM] | SMILES
1 | – | CC1(C)C[C@H](CNc2cccc(-c3cc(NC(=O)[C@@H]4CCNC4)ncc3Cl)n2)CCO1 [Example 259, (R)-Pyrrolidine-3-carboxylic acid {5′-chloro-6-[((R)-2,2-dimethyl-tetrahydro-pyran-4-ylmethyl)-amino]-[2,4′]bipyridinyl-2′-yl}-amide]
811 | – | CCN1CCCC(C(=O)Nc2cc(-c3cccc(NCC4CCOCC4)n3)c(Cl)cn2)C1 (single isomer, unassigned) [Example 14]
14 | – | O=C(Nc1cc(-c2cccc(NCC3CCOCC3)n2)c(Cl)cn1)C1CNC1 [Example 119, Azetidine-3-carboxylic acid {5′-chloro-6-[(tetrahydro-pyran-4-ylmethyl)-amino]-[2,4′]bipyridinyl-2′-yl}-amide]
< 8 | – | N[C@@H]1CC[C@H](C(=O)Nc2cc(-c3nc(NCC4CCOCC4)ccc3Cl)c(Cl)cn2)C1 [Example 99, (1S,3R)-3-Amino-cyclopentanecarboxylic acid {3,5′-dichloro-6-[(tetrahydro-pyran-4-ylmethyl)-amino]-[2,4′]bipyridinyl-2′-yl}-amide]
5 | – | O=C(Nc1cc(-c2nc(NCC3CCOCC3)ccc2F)c(Cl)cn1)[C@H]1CNCCO1 [Example 158, (R)-Morpholine-2-carboxylic acid {5′-chloro-3-fluoro-6-[(tetrahydro-pyran-4-ylmethyl)-amino]-[2,4′]bipyridinyl-2′-yl}-amide]
1 | – | CC1(C)COCC(CNc2cccc(-c3cc(NC(=O)[C@@H]4CCCNC4)ncc3Cl)n2)O1 (stereo partly drawn) [Example 219, (R)-Piperidine-3-carboxylic acid {5′-chloro-6-[(6,6-dimethyl-[1,4]dioxan-2-ylmethyl)-amino]-[2,4′]bipyridinyl-2′-yl}-amide]
< 8 | – | O=C(Nc1cc(-c2cccc(NCC3CCCCC3)n2)c(Cl)cn1)[C@@H]1CCCNC1 [Example 17, (R)-Piperidine-3-carboxylic acid [5′-chloro-6-(cyclohexylmethyl-amino)-[2,4′]bipyridinyl-2′-yl]-amide]
2 | – | CC1(C)C[C@@H](CNc2cccc(-c3cc(NC(=O)[C@@H]4CCCNC4)ncc3Cl)n2)CCO1 (single isomer, unassigned) [Example 116, (R)-piperidine-3-carboxylic acid {5′-chloro-6-[((S)-2,2-dimethyl-tetrahydro-pyran-4-ylmethyl)-amino]-[2,4′]bipyridinyl-2′-yl}-amide or (R)-piperidine-3-carboxylic acid {5′-chloro-6-[((R)-2,2-dimethyl-tetrahydro-pyran-4-ylmethyl)-amino]-[2,4′]bipyridinyl-2′-yl}-amide]
2 | – | C[C@H]1CC[C@H](C(=O)Nc2cc(-c3cccc(NC[C@@H]4CCOC(C)(C)C4)n3)c(Cl)cn2)CN1 (single isomer, unassigned) [Example 243]
26 | – | COC(=O)N1CCC[C@H](C(=O)Nc2cc(-c3nc(N[C@H](C)C4CCOCC4)ccc3Cl)c(Cl)cn2)C1 [Example 153, (S)-3-{3,5′-Dichloro-6-[(R)-1-(tetrahydro-pyran-4-yl)-ethylamino]-[2,4′]bipyridinyl-2′-ylcarbamoyl}-piperidine-1-carboxylic acid methyl ester]
1 | – | O=C(Nc1cc(-c2ccc(F)c(NCC3CCOCC3)n2)c(Cl)cn1)[C@@H]1CCCNC1 [Example 135, (R)-Piperidine-3-carboxylic acid {5′-chloro-5-fluoro-6-[(tetrahydro-pyran-4-ylmethyl)-amino]-[2,4′]bipyridinyl-2′-yl}-amide]
9 | – | O=C(Cc1cccnc1)Nc1cc(-c2cccc(NCC3CCOCC3)n2)c(Cl)cn1 [Example 66, N-{5′-Chloro-6-[(tetrahydro-pyran-4-ylmethyl)-amino]-[2,4′]bipyridinyl-2′-yl}-2-pyridin-3-yl-acetamide]
1 | – | N#CC1(CNc2cccc(-c3cc(NC(=O)[C@@H]4CCCNC4)ncc3Cl)n2)CCOCC1 [Example 238, (R)-Piperidine-3-carboxylic acid {5′-chloro-6-[(4-cyano-tetrahydro-pyran-4-ylmethyl)-amino]-[2,4′]bipyridinyl-2′-yl}-amide]
1 | – | C[C@@H]1CC[C@@H](C(=O)Nc2cc(-c3cccc(NCC4CCOCC4)n3)c(Cl)cn2)CN1 (single isomer, unassigned) [Example 146]
144 | – | CCN1CCCC(C(=O)Nc2cc(-c3cccc(NCC4CCOCC4)n3)c(Cl)cn2)C1 (stereo not shown) [Example 9, 1-Ethyl-piperidine-3-carboxylic acid {5′-chloro-6-[(tetrahydro-pyran-4-ylmethyl)-amino]-[2,4′]bipyridinyl-2′-yl}-amide]
< 8 | – | O=C(Nc1cc(-c2cccc(NCc3cccc(F)c3)n2)c(Cl)cn1)[C@@H]1CCCNC1 [Example 1, (R)-Piperidine-3-carboxylic acid [5′-chloro-6-(3-fluoro-benzylamino)-[2,4+]bipyridinyl-2′-yl]-amide]
2 | – | CC[C@@H]1CC[C@@H](C(=O)Nc2cc(-c3cccc(NCC4CCOCC4)n3)ccn2)CN1 (racemic) [Example 230, (3R,6R)-/(3S,6S)-6-Ethyl-piperidine-3-carboxylic acid {6-[(tetrahydro-pyran-4-ylmethyl)-amino]-[2,4′]bipyridinyl-2′-yl}-amide]
56 | – | O=C(Nc1cc(-c2cccc(NCC3CCOCC3)n2)c(Cl)cn1)c1cccnc1 [Example 71, N-{5′-Chloro-6-[(tetrahydro-pyran-4-ylmethyl)-amino]-[2,4′]bipyridinyl-2′-yl}-nicotinamide]
11 | – | CC(C)C(=O)Nc1cc(-c2cccc(NCC3CCOCC3)n2)c(Cl)cn1 [Example 70, N-{5′-Chloro-6-[(tetrahydro-pyran-4-ylmethyl)-amino]-[2,4]bipyridinyl-2′-yl}-isobutyramide]
4 | – | O=C(Nc1cc(-c2nc(NCC3CCOCC3)ccc2F)c(Cl)cn1)C1CNCCOC1 (single isomer, unassigned) [Example 223]
23 | – | O=C(Nc1cc(-c2cccc(NCC3CCCCC3)n2)c(Cl)cn1)[C@H]1CCCNC1 [Example 38, (S)-Piperidine-3-carboxylic acid [5′-chloro-6-(cyclohexylmethyl-amino)-[2,4′]bipyridinyl-2′-yl]-amide]
32 | – | COCCNc1cccc(-c2cc(NC(=O)[C@@H]3CCCNC3)ncc2Cl)n1 [Example 26, (R)-Piperidine-3-carboxylic acid [5′-chloro-6-(2-methoxy-ethylamino)-[2,4′]bipyridinyl-2′-yl]-amide]
< 8 | – | COC(=O)N1CCC[C@H](C(=O)Nc2cc(-c3nc(NCC4CCOC(C)(C)C4)ccc3Cl)c(Cl)cn2)C1 (stereo partly drawn) [Example 140, (S)-3-{3,5′-Dichloro-6-[(2,2-dimethyl-tetrahydro-pyran-4-ylmethyl)-amino]-[2,4′]bipyridinyl-2′-ylcarbamoyl}-piperidine-1-carboxylic acid methyl ester]
– | < 8 | O=C(Nc1cc(-c2cc(NCC3CCOCC3)cnc2Cl)c(Cl)cn1)[C@@H]1CCCNC1 [Example 312, (R)-Piperidine-3-carboxylic acid {2,5′-dichloro-5-[(tetrahydro-pyran-4-ylmethyl)-amino]-[3,4′]bipyridinyl-2′-yl}-amide]
1 | – | O=C(Nc1cc(-c2cccc(NCC3CCOCC3)n2)c(Cl)cn1)[C@@H]1CCCNC1 [Example 3, (R)-Piperidine-3-carboxylic acid {5′-chloro-6-[(tetrahydro-pyran-4-ylmethyl)-amino]-[2,4′]bipyridinyl-2′-yl}-amide]
